# Results reported in patent US20240103005A1, “N-ACRYLOYLINDOLES AND METHODS OF USE” (The University of Hong Kong, priority 2022, published 2024).
# Entries after “also recorded” stand apart in the source; their conditions may differ.
# Experiments:
# [1] = Reaction kinetics of cysteine-reactive compounds with N-acetyl-L-cysteine methyl ester (LC-MS); format: physicochemical; conditions: for time to complete reaction with N-acetylcysteine methyl ester: PBS/MeOH 4:1; for calculated rate constant, fold faster than NAIA: reaction with N-Ac-Cys-OMe 250 μM
# Method: Reaction Kinetics of Cysteine-Reactive Compounds with N-Acetyl-L-Cysteine Methyl Ester
# Stock solution of cysteine-reactive compound in DMSO was diluted by PBS/MeOH solution mixture (4:1, v/v; 500 μL), reaching final concentration of 10 μM. Stock solution of N-acetyl-L-cysteine methyl ester in DMSO was then freshly prepared, and added to the compound solution at final concentration of 250 μM. The solution mixture was incubated at room temperature, and at predetermined time intervals, an aliquot of the reaction mixture (10 μL) was sent for LC-MS analysis on Waters Autopurification System using a SunFire C18 HPLC column (50×4.6 mm with 5 μm diameter particles, Waters). Separation was achieved by gradient elution from 5% to 100% MeCN in water (constant 0.1 vol % formic acid) over 4 min, isocratic elution with 100% MeCN (with 0.1 vol % formic acid) from 4 to 8 min, and returning to 5% MeCN in water (with 0.1 vol % formic acid) and equilibrated for 2 min. Selected ion chromatograms, with m/z corresponding to the molecular ion of the compound and/or the adduct, were extracted and the data was analyzed using MassLynx™ software by calculating the area under the curve. The peak area was then calibrated to concentration of the compound/adduct by a set of solution mixtures containing known concentrations of the compound/adduct.
# The reactivity of NAIA with cysteine in aqueous buffer solution has been investigated by LC-MS experiments (FIGS. 1A-1J). […] Upon addition of N-acetylcysteine methyl ester (250 μM), NAIA-5 reacted quickly and completely with N-acetylcysteine methyl ester within […], as reflected by the diminishment of the peak of NAIA-5 at t=6.20 min with a concomitant growth of a new peak at t=5.60 min in the LC, which is attributable to the cysteine adduct of NAIA-5 based on the MS (FIGS. 1B-1G). […] This highlights the important contribution of aromaticity of indole scaffold to increase electrophilicity of acrylamide warhead for fast and complete cysteine reaction in aqueous buffer solution.
# Next, we monitored the reaction between NAIA-amide (10 μM) and N-acetylcysteine methyl ester (250 μM) by LC-MS analysis (FIG. 17A). Complete conversion of NAIA-C5 amide was observed within 40 s as indicated by the disappearance of NAIA-C5 amide peak (t=5.09 min) and emergence of the adduct peat (t=4.80 min) in the LC trace (FIG. 17B). Likewise, the reaction of NAIA-C4 amide proceeded with fast kinetics and was completely consumed in 1 min (FIG. 17C). The calculated rate constant of NAIA-C5 amide and NAIA-C4 amide were 2-fold and 1.2-fold faster than NAIA (FIG. 17D). […] Owning to the excellent reaction rate of NAIA-C5 amide, it was taken forward for further comparative analysis in subsequent experiments.
# [2] = Selectivity for reacting with Cys over other amino acids (LC-MS); format: physicochemical; conditions: compound 10 μM, amino acid 30 μM (3 equiv.), 30 min, PBS/MeOH 4:1
# Method: Selectivity of NAI for Reacting with Cys Over Other Amino Acids
# Stock solution of NAIA-4 and NAIA-5, respectively, in DMSO was diluted by PBS/MeOH solution mixture (4:1, v/v; 500 μL), reaching final concentration of 10 μM. Stock solution of amino acid in DMSO was then freshly prepared, and added to the compound solution at final concentration of 30 μM. The solution mixture was incubated at room temperature for 30 min. After that, an aliquot of the reaction mixture (10 μL) was sent for LC-MS analysis. Selected ion chromatograms, with m/z=325 corresponding to [NAIA-4+H]^+ or [NAIA-5+H]^+, were extracted and analyzed by integrating the area under curve.
# (§1) As fast-reacting probes are often susceptible to hydrolysis, we sought to investigate the aqueous stability of NAIA-C5 amide. […] Taking the excellent reaction kinetics and a mere 14% degradation in 30 min into account, NAIA-C5 amide was considered to be a useful tool in cysteine profiling (FIG. 17C and FIG. 17F).
# [3] = test system: 231MFP cell lysates; test: Gel-based ABPP, Cys labeling of 231MFP cell lysates (in-gel fluorescence); format: biochemical; conditions: 30 min incubation
# Method: FIGS. 10A-10D. Gel-based ABPP experiments of NAIA-4 to investigate its ability to label Cys in cell lysates and live cells. (FIGS. 10A-10B) 231MFP cell lysates (20 μg) were incubated with NAIA-4 or IAA at indicated concentrations for 30 min, following by CuAAC reaction with azide-fluor 545 (5 μM). The labeled proteins were then boiled with sampling buffer, and read out by in-gel fluorescence after SDS-PAGE. Quantified data were shown in average±s.e.m. from n=3 replicates/group. Statistical significance vs untreated control is expressed as *p<0.05; ***p<0.001, and vs different treatment groups is expressed as “p<0.01; ^###p<0.001. (FIGS. 10C-10D) 231MFP cells were pre-treated with NAIA-4 or IAA at indicated concentrations for 1 h. […] The cell lysates were labeled with azide-fluor 545 (25 μM) by CuAAC reaction, and the labeled protein were detected by in-gel fluorescence after SDS-PAGE. Quantified data were shown in average±s.e.m. from n=3 biological replicates/group. Statistical significance is expressed as *p<0.05; ***p<0.001.
# In-Gel Fluorescence for Visualizing Cys Labeling by NAIAs and IAA In Vitro
# HepG2 or 231MFP cells were lysed by probe sonication in DPBS, and cell debris were removed by centrifugation at 1,000 g for 5 min. Protein concentration of the lysates was determined by bicinchoninic acid (BCA) assay, and the lysates were then diluted to 2 mg/mL by DPBS. […]
# [4] = test system: 231MFP cells; test: Gel-based ABPP, Cys labeling in live 231MFP cells; format: cell-based; conditions: 1 h pre-treatment
# Method: FIGS. 10A-10D. Gel-based ABPP experiments of NAIA-4 to investigate its ability to label Cys in cell lysates and live cells. (FIGS. 10A-10B) 231MFP cell lysates (20 μg) were incubated with NAIA-4 or IAA at indicated concentrations for 30 min, following by CuAAC reaction with azide-fluor 545 (5 μM). The labeled proteins were then boiled with sampling buffer, and read out by in-gel fluorescence after SDS-PAGE. Quantified data were shown in average±s.e.m. from n=3 replicates/group. Statistical significance vs untreated control is expressed as *p<0.05; ***p<0.001, and vs different treatment groups is expressed as “p<0.01; ^###p<0.001. (FIGS. 10C-10D) 231MFP cells were pre-treated with NAIA-4 or IAA at indicated concentrations for 1 h. The cells were then washed with DPBS and lysed in DPBS by probe sonication. The cell lysates were labeled with azide-fluor 545 (25 μM) by CuAAC reaction, and the labeled protein were detected by in-gel fluorescence after SDS-PAGE. Quantified data were shown in average±s.e.m. from n=3 biological replicates/group. Statistical significance is expressed as *p<0.05; ***p<0.001.
# In-Gel Fluorescence for Visualizing Cys Labeling by NAIAs and IAA in Live Cells
# 231MFP or HepG2 cells were grown in 10-cm plates in complete medium. […] Protein concentration of the lysates was determined by BCA assay, and the lysates were diluted to 2 mg/mL by DPBS. […]
# [5] = test system: 231MFP cells; test: WST-8 cell viability assay; format: cell-based; conditions: WST-8, 2 h incubation; read-out: IC50 (cytotoxicity)
# Method: WST-8 Cell Viability Assay of Cells Treated with NAIA-4 or IAA
# 231MFP cells were plated on 96-well plates (Corning, 3904) at 30,000 cells per well and allowed to grow in complete medium overnight. The cells were then incubated with DMSO solvent control, NAIA-4 or IAA at indicated concentrations for 2 h. The solution was replaced with new culture medium containing 10 μL of WST-8 solution (Abcam; ab228554) and incubated for 2 h in dark at 37° C. Cell viability were then assayed by the absorption at 460 nm on SpectraMax i3 (Molecular Devices).
# [6] = Stability in aqueous buffer solution over time (LC-MS); format: physicochemical
# Method: Stability of NAIA-5 in Aqueous Buffer Solution Over Time
# NAIA-5 (10 μM) was dissolved in PBS/MeOH solution mixture (4:1, v/v; 500 μL) and stay at room temperature. At predetermined time intervals, an aliquot of the reaction mixture (10 μL) was sent for LC-MS analysis on Waters Autopurification System using a SunFire C18 HPLC column (50×4.6 mm with 5 μm diameter particles, Waters). Separation was achieved by gradient elution from 5% to 100% MeCN in water (constant 0.1 vol % formic acid) over 4 min, isocratic elution with 100% MeCN (with 0.1 vol % formic acid) from 4 to 8 min and returning to 5% MeCN in water (with 0.1 vol % formic acid) and equilibrated for 2 min. Selected ion chromatograms, with m/z=325 corresponding to [NAIA-5+H]^+, were extracted and analyzed by integrating the area under curve.
# as §1
# [7] = test system: HCT116 cell lysates; test: Gel-based ABPP, Cys labeling of HCT116 cell lysates; format: biochemical
# Method: FIGS. 18A-18B Gel-based ABPP analysis of NAIA-amides, NAIA-5 and IAA on Cys labeling of HCT116 cell lysates in vitro. HCT116 cell lysates (100 μg) were incubated with the compounds at indicated concentrations and time intervals, following by CuAAC reaction with azide-fluor 545 (25 μM). The labeled proteins were then boiled with sampling buffer, and read out by in-gel fluorescence after SDS-PAGE.
# Confirming the reaction between NAIA-C5 amide and cysteine in vitro, we moved on to evaluate its application for cysteine profiling in complex biological sample. To assess this, we performed gel-based ABPP in cell lysates and in live cells. HCT116 cell lysates were incubated with IAA, NAIA and NAIA-Amide, followed by installation of fluorophore by click chemistry. Then, the labelled proteins were resolved by SDS-PAGE and visualized by their in-gel fluorescence. […] In time-dependent experiments, a 15-minute incubation of NAIA-C5 amide with HCT116 cell lysates was sufficient to have decent labeling, highlighting its quick labeling (FIG. 18B).
# [8] = compound 10 μM, N-Ac-Cys-OMe 250 μM
smiles,measurement,setting,value
C#CCCCCNC(=O)c1cn(C(=O)C=C)c2ccccc12 [NAIA-C3 amide],cysteine reaction rate (in words),[1]; [8],reacted relatively slower despite it still showed superior reaction kinetics over IAA
C#CCCCCNC(=O)COc1cccc2c1ccn2C(=O)C=C [NAIA-4],time to complete reaction with N-acetylcysteine methyl ester,[1]; [8],≤ 120 s
same,selectivity toward cysteine over other amino acids,[2],excellent selectivity toward cysteine over other amino acids; also recorded: Significant decreases in NAIA-4 and NAIA-5 levels were only found in the solution mixture with N-acetyl-L-cysteine methyl ester
same,cysteine labeling (in-gel fluorescence) compared with IAA,[3],better labeling from NAIA-4 than IAA at all the doses tested
same,cysteine labeling in live cells (in-gel fluorescence) compared with IAA,[4],more labeling of functional cysteines by NAIA-4 than IAA
same,IC50,[5],> 40 µM
"C=CC(=O)N1CCc2ccccc21 [NAine, N-acryloylindoline]",reaction kinetics with cysteine (k),[1]; FIG. 7 legend summary,< 10^0 M^−1 s^−1
C#CCCCCNC(=O)c1cccc2c1ccn2C(=O)C=C [NAIA-C4 amide],time to complete consumption by N-acetylcysteine methyl ester,[1]; [8],1 min
same,"calculated rate constant, fold faster than NAIA",[1],1.2 fold
C#CCCCCNC(=O)c1ccc2c(ccn2C(=O)C=C)c1 [NAIA-C5 amide],time to complete reaction with N-acetylcysteine methyl ester,[1]; [8],≤ 40 s
same,"calculated rate constant, fold faster than NAIA",[1],2 fold
same,selectivity toward cysteine over other amino acids,[2],only incubation with cysteine consumed NAIA-C5 amide to an undetectable level
same,change of compound level in aqueous buffer solution over time (in words),"[6]; 10 μM, PBS/MeOH 4:1, room temperature",gradual degradation was observed in 3 hours
same,degradation in aqueous buffer,[6]; 30 min,14%
same,in-gel fluorescence (in words),[7],comparable to that by NAIA; also recorded: significantly stronger fluorescence was detected in samples incubated with NAIA or NAIA-C5 amide in a dose-dependent manner
same,"overall in-gel fluorescence intensity, fold higher than IAA",[7],3 fold
same,incubation time sufficient for decent labeling,[7]; time-dependent experiment,15 min
